From ChEMBL document CHEMBL4325920, “Discovery of Clinical Candidate BMS-823778 as an Inhibitor of Human 11β-Hydroxysteroid Dehydrogenase Type 1 (11β-HSD-1)” (ACS Med Chem Lett, 2018)
The source made the active and inactive calls. The rule behind the calls is not given here.

How the values were obtained:
[1] = Selectivity ratio of Ki for recombinant mouse 11beta-HSD1 expressed in HEK293 cell microsomes to Ki for recombinant cynomolgus monkey 11beta-HSD1 expressed in HEK293 cell microsomes
[2] = target: T1, 11-beta-hydroxysteroid dehydrogenase type 2 (Mus musculus) (UniProt P51661); experiment: Inhibition of mouse 11beta-HSD2 up to 20 uM
T1 sequence (whole entry): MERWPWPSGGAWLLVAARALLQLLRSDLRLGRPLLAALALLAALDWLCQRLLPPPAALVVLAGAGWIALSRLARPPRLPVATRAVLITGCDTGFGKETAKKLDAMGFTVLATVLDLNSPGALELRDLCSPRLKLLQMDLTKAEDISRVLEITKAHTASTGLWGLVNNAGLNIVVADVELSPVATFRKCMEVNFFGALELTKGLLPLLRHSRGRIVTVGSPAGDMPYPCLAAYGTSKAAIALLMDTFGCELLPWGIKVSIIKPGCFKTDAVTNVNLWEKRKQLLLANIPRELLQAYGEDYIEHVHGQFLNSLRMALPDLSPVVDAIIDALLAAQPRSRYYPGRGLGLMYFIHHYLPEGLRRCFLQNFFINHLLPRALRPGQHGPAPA

[3] = target: T2, 11-beta-hydroxysteroid dehydrogenase type 2 (Rattus norvegicus) (UniProt P50233); experiment: Inhibition of rat 11beta-HSD2 up to 20 uM
T2 sequence (whole entry): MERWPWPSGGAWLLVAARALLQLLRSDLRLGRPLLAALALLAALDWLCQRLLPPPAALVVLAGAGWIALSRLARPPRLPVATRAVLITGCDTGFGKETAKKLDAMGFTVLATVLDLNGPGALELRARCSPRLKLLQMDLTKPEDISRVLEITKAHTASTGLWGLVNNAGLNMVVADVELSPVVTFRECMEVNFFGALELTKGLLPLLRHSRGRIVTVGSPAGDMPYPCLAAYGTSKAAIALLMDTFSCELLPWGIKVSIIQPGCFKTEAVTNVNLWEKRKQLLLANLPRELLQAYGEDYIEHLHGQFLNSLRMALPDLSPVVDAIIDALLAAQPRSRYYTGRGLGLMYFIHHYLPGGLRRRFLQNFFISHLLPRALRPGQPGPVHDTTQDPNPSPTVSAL

[4] = target: T3, 11-beta-hydroxysteroid dehydrogenase type 2 (Homo sapiens) (UniProt P80365); experiment: Inhibition of recombinant human 11beta-HSD2 expressed in cells up to 30 uM using […] as substrate by LC-MS analysis; assay type: cell-based
T3 sequence (whole entry): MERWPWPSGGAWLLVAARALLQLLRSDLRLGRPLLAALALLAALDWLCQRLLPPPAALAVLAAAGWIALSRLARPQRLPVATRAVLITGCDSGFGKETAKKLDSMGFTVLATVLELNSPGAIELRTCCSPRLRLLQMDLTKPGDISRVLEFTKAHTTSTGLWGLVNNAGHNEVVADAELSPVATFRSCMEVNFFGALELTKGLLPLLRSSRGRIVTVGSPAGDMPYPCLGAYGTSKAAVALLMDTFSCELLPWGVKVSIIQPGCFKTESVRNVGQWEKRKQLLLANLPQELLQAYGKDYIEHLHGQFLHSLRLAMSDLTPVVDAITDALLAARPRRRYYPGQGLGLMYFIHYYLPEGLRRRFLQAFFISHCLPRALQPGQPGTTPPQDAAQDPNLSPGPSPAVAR

Macaca fascicularis = organism: Macaca fascicularis; experiment: Inhibition of cynomolgus monkey 11beta-HSD2 up to 20 uM

- Ratio Ki [1]: 55
- inhibition [2]: inactive
- inhibition [3]: inactive
- inhibition [4]: inactive
- inhibition (Macaca fascicularis): inactive
Compound: CC(C)(O)c1cccn2c(C3(c4ccc(Cl)cc4)CC3)nnc12
